According to PMC6704710, “Preclinical evaluation of 3D185, a novel potent inhibitor of FGFR1/2/3 and CSF-1R, in FGFR-dependent and macrophage-dominant cancer models” (Journal of Experimental & Clinical Cancer Research : CR, 2019):

How the values were obtained:
Test in all cases: Eurofins kinase panel
Assay type in all cases: biochemical
Conditions in all cases: read-out: Inhibition rate (%)
BRK(h) = biological target: T1, BRK(h) (Homo sapiens, UniProt Q13882)
T1 construct: purchased Eurofins (KinaseProfiler)
T1 sequence (Q13882 whole entry): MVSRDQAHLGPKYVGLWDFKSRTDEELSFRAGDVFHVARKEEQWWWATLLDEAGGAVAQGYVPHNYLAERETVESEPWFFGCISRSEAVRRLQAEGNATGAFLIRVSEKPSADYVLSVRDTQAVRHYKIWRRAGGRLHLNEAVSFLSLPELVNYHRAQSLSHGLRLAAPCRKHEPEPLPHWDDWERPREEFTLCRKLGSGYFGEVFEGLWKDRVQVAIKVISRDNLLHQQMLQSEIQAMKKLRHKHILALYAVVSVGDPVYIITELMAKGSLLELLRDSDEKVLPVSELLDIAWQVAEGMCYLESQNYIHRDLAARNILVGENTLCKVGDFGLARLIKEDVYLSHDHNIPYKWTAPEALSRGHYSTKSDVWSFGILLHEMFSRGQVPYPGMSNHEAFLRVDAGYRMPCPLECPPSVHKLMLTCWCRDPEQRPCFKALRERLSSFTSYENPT

TTBK2(h) = biological target: T2, TTBK2(h) (Homo sapiens, UniProt Q6IQ55)
T2 construct: purchased Eurofins (KinaseProfiler)
T2 sequence (Q6IQ55 whole entry): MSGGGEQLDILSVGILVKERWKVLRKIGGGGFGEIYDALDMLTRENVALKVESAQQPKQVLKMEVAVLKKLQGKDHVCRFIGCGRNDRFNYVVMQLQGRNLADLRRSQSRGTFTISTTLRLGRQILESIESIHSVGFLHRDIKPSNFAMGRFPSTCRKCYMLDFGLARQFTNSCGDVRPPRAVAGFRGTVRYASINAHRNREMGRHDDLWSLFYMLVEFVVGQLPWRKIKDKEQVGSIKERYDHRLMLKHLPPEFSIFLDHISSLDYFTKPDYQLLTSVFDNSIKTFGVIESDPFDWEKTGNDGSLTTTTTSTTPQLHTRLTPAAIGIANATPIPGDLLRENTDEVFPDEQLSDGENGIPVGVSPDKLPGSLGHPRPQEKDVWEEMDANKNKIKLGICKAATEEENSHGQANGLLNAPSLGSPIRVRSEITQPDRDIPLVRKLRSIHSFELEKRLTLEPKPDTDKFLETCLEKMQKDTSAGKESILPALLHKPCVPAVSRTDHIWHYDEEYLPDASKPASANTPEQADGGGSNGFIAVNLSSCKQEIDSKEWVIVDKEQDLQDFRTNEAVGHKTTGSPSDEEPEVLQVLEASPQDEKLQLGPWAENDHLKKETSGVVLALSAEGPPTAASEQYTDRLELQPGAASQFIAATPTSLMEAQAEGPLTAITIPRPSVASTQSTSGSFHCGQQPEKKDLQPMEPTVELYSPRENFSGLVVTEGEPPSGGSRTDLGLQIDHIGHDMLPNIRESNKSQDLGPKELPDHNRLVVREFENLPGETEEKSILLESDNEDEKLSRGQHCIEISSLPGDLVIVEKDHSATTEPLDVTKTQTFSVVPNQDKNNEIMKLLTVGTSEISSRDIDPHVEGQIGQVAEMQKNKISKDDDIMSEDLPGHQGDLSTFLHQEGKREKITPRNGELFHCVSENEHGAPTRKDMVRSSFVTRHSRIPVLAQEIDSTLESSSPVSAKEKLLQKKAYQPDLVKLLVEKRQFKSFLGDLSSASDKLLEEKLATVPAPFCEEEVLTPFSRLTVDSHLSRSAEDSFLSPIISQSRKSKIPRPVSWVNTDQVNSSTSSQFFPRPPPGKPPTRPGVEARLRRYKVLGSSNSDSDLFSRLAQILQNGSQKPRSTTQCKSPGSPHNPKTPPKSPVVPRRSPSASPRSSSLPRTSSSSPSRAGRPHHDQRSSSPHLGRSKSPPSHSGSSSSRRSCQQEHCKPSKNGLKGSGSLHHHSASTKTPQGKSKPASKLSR

SRPK1(h) = biological target: T3, SRPK1(h) (Homo sapiens, UniProt Q96SB4)
T3 construct: purchased Eurofins (KinaseProfiler)
T3 sequence (Q96SB4 whole entry): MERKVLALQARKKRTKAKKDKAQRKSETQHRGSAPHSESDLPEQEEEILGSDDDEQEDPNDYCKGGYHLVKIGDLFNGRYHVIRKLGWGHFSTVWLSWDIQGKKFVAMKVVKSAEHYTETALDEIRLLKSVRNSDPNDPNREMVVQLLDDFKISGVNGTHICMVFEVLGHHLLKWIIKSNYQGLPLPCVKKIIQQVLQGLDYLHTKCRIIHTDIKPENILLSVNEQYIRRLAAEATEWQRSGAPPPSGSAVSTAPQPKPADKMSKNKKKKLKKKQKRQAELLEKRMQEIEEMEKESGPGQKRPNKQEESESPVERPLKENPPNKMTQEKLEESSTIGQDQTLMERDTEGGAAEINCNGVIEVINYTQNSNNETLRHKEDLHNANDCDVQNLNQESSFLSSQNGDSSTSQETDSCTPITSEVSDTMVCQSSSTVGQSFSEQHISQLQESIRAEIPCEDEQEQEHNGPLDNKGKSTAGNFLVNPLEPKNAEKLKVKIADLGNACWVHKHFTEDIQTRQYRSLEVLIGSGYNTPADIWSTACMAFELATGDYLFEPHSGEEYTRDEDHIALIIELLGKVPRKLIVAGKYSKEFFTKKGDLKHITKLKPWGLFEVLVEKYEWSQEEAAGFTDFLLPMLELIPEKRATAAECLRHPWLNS

LRRK2(h) = biological target: T4, LRRK2(h) (Homo sapiens, UniProt Q5S007)
T4 construct: purchased Eurofins (KinaseProfiler)

[1] = biological target: T5, PI3 Kinase (p110α(H1047R)/p85α)(h) (Homo sapiens, UniProt P42336, H1047R)
T5 construct: purchased Eurofins (KinaseProfiler)
T5 sequence (P42336 whole entry H1047R): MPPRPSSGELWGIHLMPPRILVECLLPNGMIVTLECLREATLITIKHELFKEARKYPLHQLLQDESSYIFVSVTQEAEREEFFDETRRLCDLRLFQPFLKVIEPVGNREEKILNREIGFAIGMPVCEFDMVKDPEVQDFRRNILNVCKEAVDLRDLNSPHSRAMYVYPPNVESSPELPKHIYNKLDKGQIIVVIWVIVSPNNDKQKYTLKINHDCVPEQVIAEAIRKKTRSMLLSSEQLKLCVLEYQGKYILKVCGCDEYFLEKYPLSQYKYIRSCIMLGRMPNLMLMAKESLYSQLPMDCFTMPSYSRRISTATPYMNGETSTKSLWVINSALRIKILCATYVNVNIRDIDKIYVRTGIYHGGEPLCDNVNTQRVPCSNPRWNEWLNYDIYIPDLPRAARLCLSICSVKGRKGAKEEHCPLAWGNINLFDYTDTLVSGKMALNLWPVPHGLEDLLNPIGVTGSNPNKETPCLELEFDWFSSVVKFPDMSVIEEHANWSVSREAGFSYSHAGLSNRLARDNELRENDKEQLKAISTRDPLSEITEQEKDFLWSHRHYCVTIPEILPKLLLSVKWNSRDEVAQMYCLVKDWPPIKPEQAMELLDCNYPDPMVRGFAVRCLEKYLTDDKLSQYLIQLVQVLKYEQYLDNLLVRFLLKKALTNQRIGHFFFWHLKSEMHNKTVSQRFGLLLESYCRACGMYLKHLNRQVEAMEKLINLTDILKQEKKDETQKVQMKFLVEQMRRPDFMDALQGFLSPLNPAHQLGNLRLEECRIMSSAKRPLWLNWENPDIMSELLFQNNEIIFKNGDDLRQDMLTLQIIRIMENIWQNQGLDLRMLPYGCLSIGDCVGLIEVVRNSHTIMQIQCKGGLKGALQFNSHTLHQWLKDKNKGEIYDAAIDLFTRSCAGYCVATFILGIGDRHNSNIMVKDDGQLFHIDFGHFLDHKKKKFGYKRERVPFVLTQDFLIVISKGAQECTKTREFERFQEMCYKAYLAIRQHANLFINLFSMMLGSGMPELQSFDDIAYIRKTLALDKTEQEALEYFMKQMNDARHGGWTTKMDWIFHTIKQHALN
T5 sequence (P27986 whole entry partner): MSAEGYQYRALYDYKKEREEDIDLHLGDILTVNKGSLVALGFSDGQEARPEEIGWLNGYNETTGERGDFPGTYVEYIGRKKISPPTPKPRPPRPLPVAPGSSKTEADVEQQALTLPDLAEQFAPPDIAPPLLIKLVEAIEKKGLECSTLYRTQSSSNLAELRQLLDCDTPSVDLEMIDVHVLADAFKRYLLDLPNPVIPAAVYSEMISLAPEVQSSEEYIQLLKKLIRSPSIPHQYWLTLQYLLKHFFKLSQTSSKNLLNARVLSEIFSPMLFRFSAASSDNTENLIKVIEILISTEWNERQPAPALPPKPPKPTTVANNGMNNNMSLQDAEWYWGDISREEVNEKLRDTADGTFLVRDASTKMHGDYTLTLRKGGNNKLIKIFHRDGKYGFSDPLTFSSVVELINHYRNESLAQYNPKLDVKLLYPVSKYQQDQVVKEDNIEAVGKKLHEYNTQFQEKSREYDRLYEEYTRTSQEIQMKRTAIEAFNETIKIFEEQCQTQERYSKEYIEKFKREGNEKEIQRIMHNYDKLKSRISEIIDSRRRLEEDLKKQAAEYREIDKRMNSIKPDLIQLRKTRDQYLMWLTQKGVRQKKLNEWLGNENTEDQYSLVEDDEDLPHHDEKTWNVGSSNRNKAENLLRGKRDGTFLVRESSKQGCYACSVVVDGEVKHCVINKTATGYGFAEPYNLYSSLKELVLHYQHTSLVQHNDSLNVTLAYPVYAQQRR

ASK1(h) = biological target: T6, ASK1(h) (Homo sapiens, UniProt Q99683)
T6 construct: purchased Eurofins (KinaseProfiler)
T6 sequence (Q99683 1-1374): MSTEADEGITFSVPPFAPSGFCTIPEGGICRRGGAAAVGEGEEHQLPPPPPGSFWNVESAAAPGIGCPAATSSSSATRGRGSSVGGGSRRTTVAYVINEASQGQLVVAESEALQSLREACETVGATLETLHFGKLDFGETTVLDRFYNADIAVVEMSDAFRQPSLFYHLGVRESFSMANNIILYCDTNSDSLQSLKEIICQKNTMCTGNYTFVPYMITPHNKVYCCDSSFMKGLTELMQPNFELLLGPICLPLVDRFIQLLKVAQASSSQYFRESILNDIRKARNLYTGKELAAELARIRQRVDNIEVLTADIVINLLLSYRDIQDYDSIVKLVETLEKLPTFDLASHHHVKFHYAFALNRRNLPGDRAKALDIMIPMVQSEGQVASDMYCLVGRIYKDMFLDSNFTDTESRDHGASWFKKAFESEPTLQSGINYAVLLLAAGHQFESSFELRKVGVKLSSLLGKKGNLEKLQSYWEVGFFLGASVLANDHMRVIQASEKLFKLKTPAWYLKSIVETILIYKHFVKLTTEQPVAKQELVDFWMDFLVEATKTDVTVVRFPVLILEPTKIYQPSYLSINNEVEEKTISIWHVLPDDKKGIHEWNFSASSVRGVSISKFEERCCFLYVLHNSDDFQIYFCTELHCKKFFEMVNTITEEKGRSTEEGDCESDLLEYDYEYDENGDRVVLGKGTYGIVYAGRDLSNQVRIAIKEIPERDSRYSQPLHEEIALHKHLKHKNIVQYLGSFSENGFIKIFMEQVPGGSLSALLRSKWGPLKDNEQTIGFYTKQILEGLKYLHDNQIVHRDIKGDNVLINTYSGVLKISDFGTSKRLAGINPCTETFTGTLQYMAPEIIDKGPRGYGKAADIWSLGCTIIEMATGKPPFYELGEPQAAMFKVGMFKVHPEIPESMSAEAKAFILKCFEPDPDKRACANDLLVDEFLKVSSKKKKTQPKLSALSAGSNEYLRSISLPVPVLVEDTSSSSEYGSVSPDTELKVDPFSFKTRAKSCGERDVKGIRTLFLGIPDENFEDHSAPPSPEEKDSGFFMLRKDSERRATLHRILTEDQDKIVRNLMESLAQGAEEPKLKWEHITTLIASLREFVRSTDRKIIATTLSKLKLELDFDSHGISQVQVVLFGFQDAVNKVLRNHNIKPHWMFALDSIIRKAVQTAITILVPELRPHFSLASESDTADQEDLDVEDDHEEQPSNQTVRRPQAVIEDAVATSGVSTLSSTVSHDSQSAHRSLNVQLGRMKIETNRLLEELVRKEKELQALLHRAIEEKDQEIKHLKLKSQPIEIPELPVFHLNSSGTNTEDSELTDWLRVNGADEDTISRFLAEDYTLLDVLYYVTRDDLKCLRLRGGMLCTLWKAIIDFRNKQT

TBK1(h) = biological target: T7, TBK1(h) (Homo sapiens, UniProt Q9UHD2)
T7 construct: purchased Eurofins (KinaseProfiler)
T7 sequence (Q9UHD2 1-729): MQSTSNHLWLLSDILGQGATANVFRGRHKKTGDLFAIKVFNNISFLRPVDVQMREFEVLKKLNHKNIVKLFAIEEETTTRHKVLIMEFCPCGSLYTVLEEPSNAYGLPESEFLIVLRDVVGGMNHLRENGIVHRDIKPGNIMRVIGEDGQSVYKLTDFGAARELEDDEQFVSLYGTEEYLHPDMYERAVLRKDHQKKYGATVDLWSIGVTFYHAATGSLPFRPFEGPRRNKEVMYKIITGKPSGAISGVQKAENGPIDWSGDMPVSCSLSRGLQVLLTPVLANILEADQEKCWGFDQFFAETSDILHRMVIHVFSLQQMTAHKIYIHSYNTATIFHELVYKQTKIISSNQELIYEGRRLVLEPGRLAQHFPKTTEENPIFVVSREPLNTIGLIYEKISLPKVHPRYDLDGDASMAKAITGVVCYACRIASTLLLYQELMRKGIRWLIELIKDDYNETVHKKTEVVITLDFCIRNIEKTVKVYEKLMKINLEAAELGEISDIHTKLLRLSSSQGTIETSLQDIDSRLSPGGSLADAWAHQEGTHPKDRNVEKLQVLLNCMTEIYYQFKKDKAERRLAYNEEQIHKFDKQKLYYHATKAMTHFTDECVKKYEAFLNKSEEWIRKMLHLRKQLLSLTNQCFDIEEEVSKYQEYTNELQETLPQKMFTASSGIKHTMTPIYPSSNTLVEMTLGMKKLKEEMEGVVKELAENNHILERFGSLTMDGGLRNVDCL

MARK3(h) = biological target: T8, MARK3(h) (Homo sapiens, UniProt P27448)
T8 construct: purchased Eurofins (KinaseProfiler)
T8 sequence (P27448 whole entry): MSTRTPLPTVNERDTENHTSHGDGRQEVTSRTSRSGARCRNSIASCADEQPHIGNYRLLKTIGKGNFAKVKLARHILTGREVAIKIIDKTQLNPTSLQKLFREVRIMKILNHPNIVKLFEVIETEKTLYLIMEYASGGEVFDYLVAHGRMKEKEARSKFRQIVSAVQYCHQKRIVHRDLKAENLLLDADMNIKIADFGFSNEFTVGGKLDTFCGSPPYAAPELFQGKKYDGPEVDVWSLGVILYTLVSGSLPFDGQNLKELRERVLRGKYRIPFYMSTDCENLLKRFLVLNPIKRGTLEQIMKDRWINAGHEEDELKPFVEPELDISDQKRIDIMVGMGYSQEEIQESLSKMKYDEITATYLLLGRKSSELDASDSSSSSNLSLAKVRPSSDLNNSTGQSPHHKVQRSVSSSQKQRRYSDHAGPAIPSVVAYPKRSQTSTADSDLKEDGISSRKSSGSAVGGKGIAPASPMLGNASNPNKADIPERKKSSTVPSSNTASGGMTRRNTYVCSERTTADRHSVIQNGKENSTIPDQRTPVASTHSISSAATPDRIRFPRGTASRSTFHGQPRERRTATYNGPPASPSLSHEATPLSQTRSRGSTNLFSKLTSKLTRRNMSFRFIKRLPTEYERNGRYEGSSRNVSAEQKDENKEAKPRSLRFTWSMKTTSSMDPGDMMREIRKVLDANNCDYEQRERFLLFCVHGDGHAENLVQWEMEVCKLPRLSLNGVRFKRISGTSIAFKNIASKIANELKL

Compound `COc1cc(OC)c(Cl)c(-c2ccc3c(NC(=O)c4ccc(N5CCNC(C)(C)C5)cc4)n[nH]c3n2)c1Cl` [3D185] has an inhibition at 0.01 µM (BRK(h); 10 nM) of -5%, an inhibition at 0.1 µM (BRK(h); 100 nM) of 7% and an inhibition at 1 µM (BRK(h); 1000 nM) of 46%. It also gave an inhibition at 0.01 µM (TTBK2(h); 10 nM) of -4%, an inhibition at 0.1 µM (TTBK2(h); 100 nM) of -11% and an inhibition at 1 µM (TTBK2(h); 1000 nM) of -9%. For the same compound, the inhibition at 0.01 µM (SRPK1(h); 10 nM) was 13%, the inhibition at 0.1 µM (SRPK1(h); 100 nM) was 9% and the inhibition at 1 µM (SRPK1(h); 1000 nM) was 12%. For the same compound, the inhibition at 0.01 µM (LRRK2(h); 10 nM) was -10%, the inhibition at 0.1 µM (LRRK2(h); 100 nM) was -3% and the inhibition at 1 µM (LRRK2(h); 1000 nM) was 21%. The inhibition at 0.01 µM ([1]; 10 nM) was 1%, the inhibition at 0.1 µM ([1]; 100 nM) was 3% and the inhibition at 1 µM ([1]; 1000 nM) was -5%. It also gave an inhibition at 0.01 µM (ASK1(h); 10 nM) of -6%, an inhibition at 0.1 µM (ASK1(h); 100 nM) of -7% and an inhibition at 1 µM (ASK1(h); 1000 nM) of -2%. The inhibition at 0.01 µM (TBK1(h); 10 nM) was -6%, the inhibition at 0.1 µM (TBK1(h); 100 nM) was -2% and the inhibition at 1 µM (TBK1(h); 1000 nM) was -1%. It also gave an inhibition at 0.01 µM (MARK3(h); 10 nM) of 7%, an inhibition at 0.1 µM (MARK3(h); 100 nM) of -6% and an inhibition at 1 µM (MARK3(h); 1000 nM) of -4%.
